From patent publication US8999661B2, “Compositions for detecting cell death and methods of use thereof” (Dana-Farber Cancer Institute, Inc., priority 2008, dated 2015)

How the values were obtained:
hepatocyte apoptosis = assay: In vivo NIR imaging of fulminant hepatic failure (anti-Fas antibody); parameters: species or system mice; settings: liver region; 10 μg probe; 25 hrs after probe injection
Procedure: This model was used to compare LDH to Annexin V for near infrared (NIR) imaging of apoptosis. Alexa750-NHS was conjugated to Annexin V (Biovision) and chicken LDHB (XpressBio) at a labeling ratio of 2:1 per mole of protein based on prior optimization. A total of 10 male NCr nude mice were injected with 5 μg of anti-Fas antibody (Jo2, Pharmingen), and 10 animals were injected with 5 μg of an isotype-matched control antibody. Two hours later, mice were injected with 10 μg of either LDH-Alexa750 or Annexin V-Alexa750. Mice underwent NIR fluorescence imaging (IVIS Spectrum, Caliper) 25 hrs after probe injection (FIG. 8A). After spectral unmixing and background subtraction (Living Images software package), regions of interest were used to quantify fluorescence localized to the liver region (FIG. 8A), as indicated with arrowheads.

[1] = test system: Ku812-Luc+ (BCR-ABL+CML blast crisis) cells; assay: In vivo imaging of chemotherapy-induced apoptosis (AMN107); parameters: species or system mice; settings: 20 μg probe after 3 doses of AMN107
Procedure: Subcutaneous tumors were established using Ku812-Luc+ (BCR-ABL+CML blast crisis) cells in NCr nude mice. When tumors were ˜1 cm, mice underwent bioluminescence imaging (BLI) to determine baseline tumor burden, followed by treatment with either AMN107 (nilotinib) at 100 mg/kg intraperitoneally (IP), or with vehicle. After 3 doses, animals were injected with 20 μg of LDH-Alexa750. Fluorescence imaging (FL) was performed 24 and 48 hrs after probe injection (day 4 and 5 of treatment) and BLI was repeated on day 5 of treatment (FIG. 9A).

HeLa cells = assay: FACS staining of camptothecin-treated apoptotic HeLa cells; format: cell-based
Procedure: HeLa cells (5×10^5 in 10 cm plates) maintained in DMEM with 10% FBS were contacted with 5 μM camptothecin to induce apoptosis. Cell staining by FITC-labeled Annexin V (Abcam, Cambridge, Mass.) or Cy5.5-labeled chicken LDH (1 μL) prepared as described in Example 1, was measured by fluorescence-activated cell sorting (FACS) analysis (with cells in annexin binding buffer (Abcam)) 12 h, 24 h, and 48 h later. Untreated HeLa cells served as negative controls.
Staining by Annexin V is known to require the presence of calcium. […] HeLa cells treated with camptothecin to induce apoptosis as in Example 9 were stained with FITC-labeled Annexin V (Abcam, Cambridge, Mass.) or Cy5.5-labeled chicken LDH in calcium-containing Annexin buffer or in calcium-free PBS. Stained cells were analyzed by FACS analysis as in Example 9.
HeLa cells (5×10^5 in 10 cm plates) maintained in DMEM with 10% FBS were contacted with 5 μM camptothecin to induce apoptosis. Cell staining was done in the media: (i) annexin buffer, (ii) DMEM supplemented with 1% FBS; (iii) DMEM supplemented with 2% FBS; (iii) DMEM supplemented with 5% FBS; (iv) DMEM supplemented with 10% FBS. For cell staining FITC-labeled Annexin V (Abcam, Cambridge, Mass.) or Cy5.5-labeled chicken LDH (1 μL) prepared as described in Example 1, was used to for FACS analysis (cells in annexin binding buffer (Abcam)) 48 h later. Untreated HeLa cells served as negative controls. […]

THP-1 cells = assay: Staining of THP-1 cells treated with HDAC inhibitor LAQ824; format: cell-based; settings: THP-1, LAQ824 50 nM, 18 hrs
Procedure: To correlate cLDHB staining with other measures of apoptosis, a fluorescent probe that binds to activated caspases (pan-caspase-FLICA, Immunochemistry Tech) was used. THP-1 cells were treated with the HDAC inhibitor LAQ824 (50 nM, 18 hrs) to induce apoptosis.
Similarly, we asked whether the […] proteins performed comparably to purified recombinant LDH.

apoptotic cells [2] = assay: Staining requirements (temperature, calcium) of cLDHB and Annexin V; format: cell-based
Procedure: To determine if cLDHB is actively transported into cells, staining was performed at room temperature and at 4° C.
A major limitation of Annexin V staining is the requirement for supra-physiological concentrations of calcium (Tait, J. F., D. F. Gibson, and C. Smith, Anal Biochem, 2004. 329: 112-9). To determine whether cLDHB staining required calcium, Annexin V and cLDHB staining was performed in PBS (without calcium or magnesium) or in Annexin Binding Buffer (with 2.5 mM calcium).

apoptotic cells [3] = assay: Homogeneous multiwell apoptosis assay in normal growth medium; format: cell-based; settings: e.g., RPMI with 10% FBS, flow cytometry or High-Content Microscopy
[4] = test system: adherent and suspension cancer cell lines (e.g., HeLa, RS(4;11), THP-1, MDA-MB231); assay: Concordance of Annexin V and cLDHB staining across cancer cell lines; format: cell-based; settings: apoptosis induced by camptothecin, doxorubicin, HDAC inhibitors
[5] = test system: non-transformed rat cardiomyocytes; assay: Concordance of staining in doxorubicin-treated cardiomyocytes; format: cell-based; settings: apoptosis induced with doxorubicin

Row | Substance | mean signal intensity (photons/sec/ROI) of anti-Fas antibody treated animals above IgG control antibody treated animals (hepatocyte apoptosis) [fold] | NIR fluorescence signal from the tumors in AMN107-treated animals compared to vehicle-treated controls [1] [fold] | change of staining with increasing amounts of FBS (FACS) (HeLa cells; HeLa treated with camptothecin) | stability of staining after washing (HeLa cells; washed with 6 changes of PBS) | staining of live cells negative for FLICA staining (THP-1 cells) | staining at room temperature versus 4° C. (apoptotic cells [2]) | staining in PBS (without calcium or magnesium) compared to Annexin Binding Buffer (2.5 mM calcium) (apoptotic cells [2]) | staining / quantification of apoptosis with probe added directly to normal growth medium (apoptotic cells [3]) | concordance in staining with Annexin V [4] | concordance in staining with Annexin V [5]
1 | LDH-Alexa750: chicken LDHB (XpressBio) conjugated to Alexa750-NHS at a labeling ratio of 2:1 | 4.2 | > 4 | – | – | – | – | – | – | – | –
2 | cLDHB: chicken LDHB used as fluorescently labeled probe; fluorochrome not stated at the place | – | – | no significant changes | entirely stable | negative | Identical results | identical under both conditions | apoptosis can be quantified | concordance in staining | Concordant staining
